From PMC7206614, “Photoswitchable ORG25543 Congener Enables Optical Control of Glycine Transporter 2” (ACS Chemical Neuroscience, 2020)
Entries after “also recorded” stand apart in the source; their conditions may differ.

Assays:
[1] = test system: rodent models of neuropathic pain; settings: cited from earlier work
[2] = test system: rodents; settings: cited from earlier work
[3] = test system: GlyT2; parameters: method as in PMID 23962079; settings: cited from earlier work; for IC50: two-electrode voltage clamp, Xenopus laevis oocytes expressing GlyT2, read-out: IC50 at GlyT2 (potency); for reversibility of GlyT2 inhibition: washout from oocytes expressing GlyT2
[4] = target: T1, GlyT2 (Homo sapiens, UniProt Q9Y345); experiment: Two-electrode voltage clamp of glycine transport currents in Xenopus laevis oocytes expressing GlyT2; type: cell-based; settings: for reversibility: restoration of glycine transport currents after washout: inhibition at IC50 concentrations (1: 4 nM, 2: 50 nM), washed with ND96 for 30 min, glycine reapplied at 5 min intervals; for IC50: oocytes expressing GlyT2, Figure 4A, range in brackets, read-out: IC50, reduction of glycine transport currents
T1 construct: expressed in transfected cells; host or cells: Xenopus laevis oocytes injected with in vitro transcribed RNA
T1 sequence (Q9Y345 1-797): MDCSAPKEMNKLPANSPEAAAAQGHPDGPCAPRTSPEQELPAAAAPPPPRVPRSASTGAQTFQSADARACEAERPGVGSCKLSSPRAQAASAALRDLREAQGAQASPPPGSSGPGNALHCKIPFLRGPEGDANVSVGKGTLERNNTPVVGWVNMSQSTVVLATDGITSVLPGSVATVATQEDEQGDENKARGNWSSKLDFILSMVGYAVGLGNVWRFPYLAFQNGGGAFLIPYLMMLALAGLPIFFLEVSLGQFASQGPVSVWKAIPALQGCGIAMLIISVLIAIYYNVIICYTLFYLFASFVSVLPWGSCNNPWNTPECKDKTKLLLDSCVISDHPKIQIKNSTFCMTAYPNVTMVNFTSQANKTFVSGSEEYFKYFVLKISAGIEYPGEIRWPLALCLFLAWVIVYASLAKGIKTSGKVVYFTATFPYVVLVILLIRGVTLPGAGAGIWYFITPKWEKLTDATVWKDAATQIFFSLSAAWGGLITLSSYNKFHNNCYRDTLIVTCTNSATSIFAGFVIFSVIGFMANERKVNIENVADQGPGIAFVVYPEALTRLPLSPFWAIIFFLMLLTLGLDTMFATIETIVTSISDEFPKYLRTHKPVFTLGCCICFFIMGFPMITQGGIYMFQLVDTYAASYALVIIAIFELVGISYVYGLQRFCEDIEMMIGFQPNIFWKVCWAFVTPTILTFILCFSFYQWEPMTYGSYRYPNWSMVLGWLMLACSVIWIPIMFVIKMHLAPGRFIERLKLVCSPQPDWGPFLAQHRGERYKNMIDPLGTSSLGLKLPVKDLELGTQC

[5] = parameters: method as in PMID 23962079; settings: cited from earlier work
[6] = test system: mouse spinal cord slices; parameters: method as in PMID 15235081; settings: exposure of mouse spinal cord slices for >10 min; cited from earlier work

| SMILES | analgesia in rodent models of neuropathic pain [1] | adverse side effects ([2]; rodent) | IC50 [3] [nM] | reversibility of GlyT2 inhibition [3] | reversibility: restoration of glycine transport currents after washout [4] | IC50 [4] [nM] | blood brain barrier permeability [5] | effect on neuropathic pain (hyperalgesia and allodynia) [1] | toxicity on acute dosing in rodents [2] | effect on inhibitory postsynaptic currents [6] | EC50 [4] [nM] |
| --- | --- | --- | --- | --- | --- | --- | --- | --- | --- | --- | --- |
| COc1cc(C(=O)NCC2(N(C)C)CCCCC2)ccc1OCc1ccccc1 [compound 2] | produced analgesia | no adverse side effects | 100 | readily reversible; also recorded: allows for restoration of glycine currents | restoration of glycine transport currents | 48.5 | blood brain barrier permeable | – | – | – | – |
| COc1cc(C(=O)NCC2(N(C)C)CCCC2)cc(OC)c1OCc1ccccc1 [ORG25543] | – | – | 20 | irreversible; also recorded: cannot be restored | no reversibility | 3.76 | – | ameliorates both hallmarks of neuropathic pain | excitotoxicity, hyperekplexia-like symptoms, and in severe cases death | long-term reduction of inhibitory postsynaptic currents | – |
| NCC(=O)O [glycine] | – | – | – | – | – | – | – | – | – | – | 14300 |
